Here are results for 13 molecules from patent publication US4448970A, “Nargenicin derivatives” (The Upjohn Company, priority 1981, dated 1984).

Each structure is given as a SMILES string. Read-outs that look alike come from different tables or passages of the source. Where only a bound is given, the exact number is not on record here.

For assay [1], the system named is S. aureus. The assay is described as follows: S. aureus SQ-Mouse CD50. It counts as in vivo. As to conditions: Staphylococcus aureus, sc.
The test system of assay [2] is S. aureus. The assay is described as follows: Standard dipped disc agar diffusion assay, S. aureus. Format: cell-based. As to conditions: Staphylococcus aureus; 1 mg/ml, 0.5 in. disc. The source says: In vitro antibacterial testing data, as measured by standard dipped disc agar diffusion assays and Minimum Inhibitory Concentration (MIC) determinations are as follows: […]
In general terms: Agar diffusion results depend on both activity and mobility in agar.

Assay [3] has as its system S. lutea. Description: Standard dipped disc agar diffusion assay, S. lutea. It counts as cell-based. As to conditions: Micrococcus luteus. As to the method:
In vitro antibacterial testing data, as measured by standard dipped disc agar diffusion assays and Minimum Inhibitory Concentration (MIC) determinations are as follows:
A 0.5 inch disc dipped into a methanol solution of chloride (6b) at a concentration of 1 mg/ml gave a zone of inhibition of 30 mm when spotted on an agar tray seeded with S. lutea.

The next assay has as its system Staphylococcus aureus. The assay is described as follows: Standard agar diffusion (12.5 cm disc) test, Staphylococcus aureus. Format: cell-based. The conditions noted are these: for zone of inhibition at 1000 µg/mL: Staphylococcus aureus. As to the method:
(§1) When tested on a standard agar diffusion (12.5 cm disc) test at a concentration of 1 mg/ml compound (45) gave the following zones of inhibition in mm:
(§2) The antibacterial activity of compounds (46), (47), (48), (49) and (50) on a standard agar diffusion (12.5 cm disc) test at a concentration of 1 mg/ml is shown in the following table: […]

A further assay has as its system Sarcina lutea. Description: Standard agar diffusion (12.5 cm disc) test, Sarcina lutea. It counts as cell-based. The conditions noted are these: for zone of inhibition at 1000 µg/mL: Micrococcus luteus. As to the method:
as §1, §2

In another assay the test system is B. fragilis. As to conditions: cited from earlier work.
Assay [4] relates to S. lutea. The conditions noted are these: cited from earlier work.
For the next assay, the system named is K. pneumoniae. The conditions noted are these: cited from earlier work.
The next assay has as its system C. perfringens. As to conditions: cited from earlier work.
A further assay relates to Mycobacterium avium. As to conditions: cited from earlier work.
The mark [5] stands for this setting: read-out: Agar Diffusion zone, S. lutea.

By ED50 is commonly meant the midpoint of the dose-response relation. A low value points to an effect at a small dose. Regarding `CCC1OC(=O)C(OC)CC2C=CC3C4OC2(C(C)=CC1C)C3C(O)C(C)C4OC(=O)c1ccc[nH]1` (stereo not shown) [Compound 32, 18-Deoxynargenicin A1], the ED50 with S. aureus [1] is above 100 mg/kg. Further, the zone of inhibition at 1000 µg/mL in the assay with S. aureus [2] came out at 29 mm; with S. lutea [3] (setting [5]) it was 32 mm.
As to `CON=C(C)C1OC(=O)C(OC)CC2C=CC3C4OC2(C(C)=CC1C)C3C(O)C(C)C4OC(=O)c1ccc[nH]1` (single isomer, unassigned; isomer b) [Compound 50, 18-Deoxy-18-methoximinonargenicin A1, Isomer B], in the assay on Staphylococcus aureus (1 mg/ml, 12.5 cm disc, table 6), the “Zone size, S. aureus” value came out at 30 mm. In the assay on Sarcina lutea (1 mg/ml, 12.5 cm disc, table 6), the “Zone size, S. lutea” value is on record as 35 mm.
For the molecule `COC1CC2C=CC3C4OC2(C(C)=CC(C)C(C(C)O)OC1=O)C3C(O)C(C)C4O` (single isomer, unassigned) [nodusmicin], the “activity against B. fragilis” value in the assay with B. fragilis is listed as “active”. For the same molecule, in the assay on S. lutea [4], the “activity against S. lutea” value is “active”. Besides, the “activity against K. pneumoniae” value in the assay on K. pneumoniae was “active”. Moreover, the “activity against C. perfringens” value with C. perfringens is reported as “active”. Besides, the “activity against Mycobacterium avium” value in the assay with Mycobacterium avium is reported as “active”.
`COC1CC2C=CC3C4OC2(C(C)=CC(C)C(C(C)O)OC1=O)C3C(O)C(C)C4OC(=O)c1ccc[nH]1` (stereo not shown) [Nargenicin A1, nargenicin A1, reference compound]: the ED50 in the assay on S. aureus [1] was in the range of 17 to 20 mg/kg.
Take `COC1CC2C=CC3C4OC2(C(C)=CC(C)C(C(C)=O)OC1=O)C3C(O)C(C)C4OC(=O)c1ccc[nH]1` (stereo not shown) [Compound 25, 18-Deoxy-18-oxonargenicin A1]: in the assay on S. aureus [1], the ED50 turned out to be 152 mg/kg. Also, the zone of inhibition at 1000 µg/mL is 35 mm in the assay with S. aureus [2] and 41 mm in the assay with S. lutea [3] (setting [5]).
On to `COC1CC2C=CC3C4OC2(C(C)=CC(C)C(C(C)=NO)OC1=O)C3C(O)C(C)C4OC(=O)c1ccc[nH]1` (single isomer, unassigned; isomer a) [Compound 46, 18-Deoxy-18-oximinonargenicin A1, Isomer A], for which the zone of inhibition at 1000 µg/mL turned out to be 30 mm in the assay with Staphylococcus aureus (read-out: Zone size, S. aureus) and 37 mm with Sarcina lutea (read-out: Zone size, S. lutea).
With `COC1CC2C=CC3C4OC2(C(C)=CC(C)C(C(C)N=[N+]=[N-])OC1=O)C3C(O)C(C)C4OC(=O)c1ccc[nH]1` (stereo not shown) [Compound 29, 18-Azido-18-deoxynargenicin A1], the zone of inhibition at 1000 µg/mL with S. aureus [2] worked out at 26 mm; with S. lutea [3] (setting [5]), 33 mm.
In the case of `COC1CC2C=CC3C4OC2(C(C)=CC(C)C(C(C)Cl)OC1=O)C3C(O)C(C)C4OC(=O)c1ccc[nH]1` (stereo not shown) [Compound 24, 18-Chloro-18-deoxynargenicin A1], the ED50 in the assay on S. aureus [1] came to 107 mg/kg. The zone of inhibition at 1000 µg/mL with S. aureus [2] amounted to 29 mm; with S. lutea [3] (setting [5]), 31 mm.
On to `COC1CC2C=CC3C4OC2(C(C)=CC(C)C(C(C)=NNC(N)=O)OC1=O)C3C(O)C(C)C4OC(=O)c1ccc[nH]1` (stereo not shown) [Compound 48, 18-Deoxy-18-semicarbazononargenicin A1], for which the zone of inhibition at 1000 µg/mL worked out at 28 mm in the assay on Staphylococcus aureus (read-out: Zone size, S. aureus) and 35 mm in the assay on Sarcina lutea (read-out: Zone size, S. lutea).
In the case of `COC1CC2C=CC3C4OC2(C(C)=CC(C)C(C(C)O)OC1=O)C3C(O)C(C)C4OC(=O)c1ccc[nH]1` (stereo not shown) [Compound 45, 18-Epinargenicin A1], the zone of inhibition at 1000 µg/mL in the assay on Staphylococcus aureus (read-out: zones of inhibition, Staphylococcus aureus) was found to be 26 mm; with Sarcina lutea (read-out: zones of inhibition, Sarcina lutea) it was 35 mm.
For the molecule `CON=C(C)C1OC(=O)C(OC)CC2C=CC3C4OC2(C(C)=CC1C)C3C(O)C(C)C4OC(=O)c1ccc[nH]1` (single isomer, unassigned; isomer a) [Compound 49, 18-Deoxy-18-methoximinonargenicin A1, Isomer A], the zone of inhibition at 1000 µg/mL in the assay with Staphylococcus aureus (1 mg/ml, 12.5 cm disc, table 6, read-out: Zone size, S. aureus) came to 30 mm; with Sarcina lutea (1 mg/ml, 12.5 cm disc, table 6, read-out: Zone size, S. lutea), 35 mm.
Regarding `COC1CC2C=CC3C4OC2(C(C)=CC(C)C(C(C)=NO)OC1=O)C3C(O)C(C)C4OC(=O)c1ccc[nH]1` (single isomer, unassigned; isomer b) [Compound 47, 18-Deoxy-18-oximinonargenicin A1, Isomer B], the “Zone size, S. aureus” value in the assay on Staphylococcus aureus (1 mg/ml, 12.5 cm disc, table 6) is recorded as 30 mm. The “Zone size, S. lutea” value in the assay on Sarcina lutea (1 mg/ml, 12.5 cm disc, table 6) is listed as 37 mm.
On to `COC1CC2C=CC3C4OC2(C(C)=CC(C)C(C(C)Cl)OC1=O)C3C(O)C(C)C4O` (stereo not shown) [Compound 35, 18-Chloro-18-deoxynodusmicin], for which the zone of inhibition at 1000 µg/mL was 30 mm with S. lutea [3] (1 mg/ml, 0.5 in. disc, read-out: Agar Diffusion zone, S. lutea) and 30 mm in the assay on S. lutea [3] (0.5 inch disc dipped into methanol solution, 1 mg/ml, read-out: zone of inhibition, S. lutea).
